Results reported in PMC5937080, “Design, Synthesis and Biological Evaluation of Novel Peptide-Like Analogues as Selective COX-2 Inhibitors” (Iranian Journal of Pharmaceutical Research : IJPR, 2018).

Columns and labels:
COX-1 = biological target: T1, COX-1 (Ovis aries, UniProt P05979); experiment: biochemical; conditions: ovine COX-1/COX-2 assay kit; mean of two determinations, deviation < 10% of the mean
T1 construct: purchased Cayman chemical, MI, USA
T1 sequence (P05979 25-600): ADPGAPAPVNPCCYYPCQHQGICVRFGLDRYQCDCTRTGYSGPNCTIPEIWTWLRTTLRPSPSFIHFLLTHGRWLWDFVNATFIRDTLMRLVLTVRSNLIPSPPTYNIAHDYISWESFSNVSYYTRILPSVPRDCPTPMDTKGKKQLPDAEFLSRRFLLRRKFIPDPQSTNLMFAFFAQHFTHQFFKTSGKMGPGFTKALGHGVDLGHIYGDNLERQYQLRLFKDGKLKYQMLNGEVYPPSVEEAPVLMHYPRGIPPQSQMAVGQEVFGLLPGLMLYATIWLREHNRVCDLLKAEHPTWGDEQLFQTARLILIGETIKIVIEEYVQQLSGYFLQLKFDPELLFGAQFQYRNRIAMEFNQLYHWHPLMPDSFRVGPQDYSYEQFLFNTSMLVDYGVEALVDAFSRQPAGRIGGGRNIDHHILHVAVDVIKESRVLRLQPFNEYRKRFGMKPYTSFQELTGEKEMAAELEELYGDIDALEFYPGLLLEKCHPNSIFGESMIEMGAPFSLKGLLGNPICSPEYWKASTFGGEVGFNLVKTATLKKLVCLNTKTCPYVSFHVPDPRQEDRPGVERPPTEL
Method: (§1) In-vitro cyclooxygenase (COX) inhibition assays
(§2) The assay was performed using an enzyme chemiluminescent kit (Cayman chemical, MI, USA) according to the previously reported method ([17]).

COX-2 = biological target: T2, COX-2 (Ovis aries, UniProt P79208); experiment: biochemical; conditions: for IC50: ovine COX-1/COX-2 assay kit, mean of two determinations, deviation < 10% of the mean
T2 construct: purchased Cayman chemical, MI, USA
T2 sequence (P79208 17-603): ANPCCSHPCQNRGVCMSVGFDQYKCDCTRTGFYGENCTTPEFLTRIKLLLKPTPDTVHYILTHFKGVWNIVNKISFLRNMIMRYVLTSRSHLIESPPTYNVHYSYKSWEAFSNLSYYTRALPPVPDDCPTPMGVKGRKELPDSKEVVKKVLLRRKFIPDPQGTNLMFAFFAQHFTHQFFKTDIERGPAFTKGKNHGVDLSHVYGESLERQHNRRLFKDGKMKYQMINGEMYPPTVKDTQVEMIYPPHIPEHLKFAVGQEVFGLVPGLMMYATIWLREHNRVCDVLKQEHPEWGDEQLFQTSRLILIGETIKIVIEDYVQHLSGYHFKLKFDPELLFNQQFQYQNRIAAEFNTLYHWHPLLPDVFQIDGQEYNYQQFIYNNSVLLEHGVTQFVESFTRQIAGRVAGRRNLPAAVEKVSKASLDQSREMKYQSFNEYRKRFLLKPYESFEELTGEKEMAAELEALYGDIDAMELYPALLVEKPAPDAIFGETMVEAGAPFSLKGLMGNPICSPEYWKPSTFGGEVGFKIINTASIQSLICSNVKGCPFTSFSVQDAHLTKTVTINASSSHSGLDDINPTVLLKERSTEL
Method: as §1, §2

| Structure (SMILES) | IC50 (COX-1) | IC50 (COX-2) | S.I. In-vitro COX-2 selectivity index (COX-1 IC50/COX-2 IC50) (COX-2) |
| --- | --- | --- | --- |
| [N-]=[N+]=Nc1ccc(C(=O)NC(Cc2ccccc2)C(=O)O)cc1 (centres unmarked) [Compound 1d, p-azidobenzoyl-phenylalanine] | 55.5 µM | > 100 µM |  |
| [N-]=[N+]=Nc1ccc(C(=O)NC(Cc2c[nH]cn2)C(=O)O)cc1 (centres unmarked) [Compound 2d, p-N3Bz -His] | 28.1 µM | 0.08 µM | 351.2 |
| [N-]=[N+]=Nc1ccc(C(=O)NC(Cc2ccc(O)cc2)C(=O)O)cc1 (centres unmarked) [Compound 3d, p-N3Bz -Tyr] | 20.9 µM | 10.1 µM | 2.1 |
| [N-]=[N+]=Nc1ccc(C(=O)NC(Cc2c[nH]c3ccccc23)C(=O)O)cc1 (centres unmarked) [Compound 4d, p-N3Bz -Trp] | > 100 µM | > 100 µM |  |

Other lines, results leading:

| IC50 (COX-1) | IC50 (COX-2) | S.I. In-vitro COX-2 selectivity index (COX-1 IC50/COX-2 IC50) (COX-2) | Structure (SMILES) |
| --- | --- | --- | --- |
| > 100 µM | > 100 µM |  | CS(=O)(=O)c1ccc(C(=O)NC(Cc2cnc[nH]2)C(=O)O)cc1 (stereo not drawn) [Compound 2c, p-MeSO2Bz -His] |
| 25.2 µM | 0.23 µM | 109.6 | CS(=O)(=O)c1ccc(C(=O)NC(Cc2ccc(O)cc2)C(=O)O)cc1 (stereo not drawn) [Compound 3c, p-MeSO 2 Bz -Tyr] |
| 16.6 µM | 0.09 µM | 184.4 | CS(=O)(=O)c1ccc(C(=O)NC(Cc2c[nH]c3ccccc23)C(=O)O)cc1 (stereo not drawn) [Compound 4c, p-MeSO2Bz -Trp] |
| > 100 µM | > 100 µM |  | CS(=O)(=O)c1ccc(C(=O)NC(Cc2ccccc2)C(=O)O)cc1 (centres unmarked) [Compound 1c, p-(methylsulfonyl)benzoyl-phenylalanine] |
